Source: ChEMBL document CHEMBL4842340, “Development of Cagrilintide, a Long-Acting Amylin Analogue” (J Med Chem, 2021)
≈ marks a conversion by molar mass, not a printed value. *1 amine or outer side, *2 acyl side, *3 side chain or, on linkers, in order; H or OH if unused. Where a SMILES comes first, the peptide text is derived from it. Bridges are numbered along the chain shown (N, C = ends). The star is where a group is joined. C20 diacid = O=C(O)CCCCCCCCCCCCCCCCCCC(=O)*; γGlu = O=C(O)[C@H](CCC(=O)[*:2])N[*:1]

Experiments:
Insulin (Homo sapiens) [1] = molecular target: Insulin (Homo sapiens) (UniProt P01308); test: Effect on insulin (unknown origin) amyloid fibril formation assessed as peptide recovery in glycyl-glycine buffer at pH 4 measured after 45 hrs by thioflavin-T fluorescence assay relative to control; design: concentration or dose not given beside the values
[2] = Solubility of the compound in lactate at pH 4 by UPLC analysis; format: physicochemical; settings: lactate buffer
[3] = Solubility of the compound in bis-tris propane at pH 7.5 by UPLC analysis; format: physicochemical; settings: bis-tris propane buffer
[4] = Agonist activity at human calcitonin receptor expressed in BHK570 cells assessed as increase in intracellular cAMP concentration incubated for 3 hrs in absence of albumin by CRE luciferase reporter gene assay; format: cell-based; settings: BHK570, 3 h
[5] = Solubility of the compound in bis-tris propane at pH 6.5 by UPLC analysis; format: physicochemical; settings: bis-tris propane buffer
[6] = Solubility of the compound in bis-tris propane at pH 6 by UPLC analysis; format: physicochemical; settings: bis-tris propane buffer
Insulin (Homo sapiens) [7] = molecular target: Insulin (Homo sapiens) (UniProt P01308); test: Effect on insulin (unknown origin) amyloid fibril formation assessed as lag time in glycyl-glycine buffer at pH 4 measured after 45 hrs by thioflavin-T fluorescence assay
[8] = Solubility of the compound in lactate at pH 3 by UPLC analysis; format: physicochemical; settings: lactate buffer
Rattus norvegicus [9] = test: Reduction in food intake in Sprague-Dawley rat at 3 nmol/kg, sc administered as single dose measured upto 24 hrs relative to control; format: functional; design: scale not given: the % may be the effect or the level left; settings: time hrs <=24
[10] = Solubility of the compound in bis-tris propane at pH 8 by UPLC analysis; format: physicochemical; settings: bis-tris propane buffer
Rattus norvegicus [11] = test: Reduction in food intake in Sprague-Dawley rat at 3 nmol/kg, sc administered as single dose measured after 24 to 48 hrs relative to control; format: functional; design: scale not given: the % may be the effect or the level left; settings: time 24-48 hrs
[12] = Agonist activity at human AMY3R (CT+RAMP3) expressed in Hollex1 cells incubated for 3 hrs by luminescence assay; format: cell-based; settings: Hollex1, 3 h
[13] = Solubility of the compound in bis-tris propane at pH 7 by UPLC analysis; format: physicochemical; settings: bis-tris propane buffer
Homo sapiens = organism: Homo sapiens; test: Ratio of EC50 for human calcitonin receptor expressed in BHK570 cells to EC50 for human AMY3R (CT+RAMP3) expressed in Hollex1 cells; format: cell-based
Rattus norvegicus [14] = organism: Rattus norvegicus; test: Ratio of EC50 for rat calcitonin receptor expressed in BHK-13 cells to EC50 for rat AMY3R (CT+RAMP3) expressed in tk-ts13 cells; format: cell-based
[15] = Solubility of the compound in lactate at pH 5 by UPLC analysis; format: physicochemical; settings: lactate buffer
[16] = Agonist activity at rat calcitonin receptor expressed in BHK-13 cells assessed as increase in intracellular cAMP concentration incubated for 25 mins by CRE luciferase reporter gene assay; format: cell-based; settings: BHK-13, 25 min
[17] = Agonist activity at rat AMY3R (CT+RAMP3) expressed in tk-ts13 cells assessed as increase in intracellular cAMP level incuabted for 25 mins by CRE luciferase reporter gene assay; format: cell-based; settings: tk-ts13, 25 min

Sequence of Insulin (Homo sapiens) (P01308 whole entry): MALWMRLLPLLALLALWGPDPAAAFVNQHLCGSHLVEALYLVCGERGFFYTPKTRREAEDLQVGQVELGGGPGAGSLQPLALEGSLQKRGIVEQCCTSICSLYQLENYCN

| Activity (Insulin (Homo sapiens) [1]) | solubility [2] | solubility [3] | EC50 [4] | solubility [5] | solubility [6] | TIME (Insulin (Homo sapiens) [7]) | solubility [8] | solubility [10] | EC50 [12] | solubility [13] | solubility [15] | EC50 [16] | EC50 [17] | SMILES | Activity (Rattus norvegicus [9]) | Activity (Rattus norvegicus [11]) | Ratio EC50 (Homo sapiens) | Ratio EC50 (Rattus norvegicus [14]) |
| --- | --- | --- | --- | --- | --- | --- | --- | --- | --- | --- | --- | --- | --- | --- | --- | --- | --- | --- |
| 0% | 200 µM (≈ 891 µg/mL) | 200 µM (≈ 891 µg/mL) | 0.657 nM | 200 µM (≈ 891 µg/mL) | 200 µM (≈ 891 µg/mL) | 3 h | 200 µM (≈ 891 µg/mL) | 200 µM (≈ 891 µg/mL) | 0.377 nM | 200 µM (≈ 891 µg/mL) |  |  |  | CC[C@H](C)[C@H](NC(=O)[C@@H]1CCCN1C(=O)CNC(=O)[C@H](Cc1ccccc1)NC(=O)[C@H](CC(N)=O)NC(=O)[C@H](CC(N)=O)NC(=O)[C@H](CO)NC(=O)[C@H](CO)NC(=O)[C@H](Cc1cnc[nH]1)NC(=O)[C@H](Cc1cnc[nH]1)NC(=O)[C@H](CC(C)C)NC(=O)[C@H](Cc1ccccc1)NC(=O)[C@H](CCC(=O)O)NC(=O)[C@H](C)NC(=O)[C@H](CC(C)C)NC(=O)[C@H](CCCNC(=N)N)NC(=O)[C@H](CCC(N)=O)NC(=O)[C@@H](NC(=O)[C@H](C)NC(=O)[C@@H]1CSSC[C@H](NC(=O)[C@H](CCC(=O)O)NC(=O)CC[C@H](NC(=O)CCCCCCCCCCCCCCCCCCC(=O)O)C(=O)O)C(=O)N[C@@H](CC(N)=O)C(=O)N[C@@H]([C@@H](C)O)C(=O)N[C@@H](C)C(=O)N[C@@H]([C@@H](C)O)C(=O)N1)[C@@H](C)O)C(=O)N[C@@H](CC(C)C)C(=O)N1CCC[C@H]1C(=O)N1CCC[C@H]1C(=O)N[C@H](C(=O)N[C@@H](CC(N)=O)C(=O)N[C@H](C(=O)NCC(=O)N[C@@H](CO)C(=O)N[C@@H](CC(N)=O)C(=O)N[C@H](C(=O)N[C@@H](Cc1ccc(O)cc1)C(N)=O)[C@@H](C)O)C(C)C)[C@@H](C)O ({C20 diacid-γGlu}-ECNTATCATQRLAEFLHHSSNNFGPILPPTNVGSNTY-NH2; disulfide 2-7) | 15% | 5% | 2 |  |
| 0% |  |  | 0.218 nM | 4 µM (≈ 17.7 µg/mL) |  | 14 h | 200 µM (≈ 884 µg/mL) |  | 0.107 nM | 7 µM (≈ 31 µg/mL) |  |  |  | CC(C)C[C@H](NC(=O)[C@H](CCCNC(=N)N)NC(=O)[C@H](CCC(N)=O)NC(=O)[C@@H](NC(=O)[C@H](C)NC(=O)[C@@H]1CSSC[C@H](NC(=O)[C@H](Cc2cnc[nH]2)NC(=O)CC[C@H](NC(=O)CCCCCCCCCCCCCCCCCCC(=O)O)C(=O)O)C(=O)N[C@@H](CC(N)=O)C(=O)N[C@@H]([C@@H](C)O)C(=O)N[C@@H](C)C(=O)N[C@@H]([C@@H](C)O)C(=O)N1)[C@@H](C)O)C(=O)N[C@@H](C)C(=O)N[C@@H](CCC(=O)O)C(=O)N[C@@H](Cc1ccccc1)C(=O)N[C@@H](CC(C)C)C(=O)N[C@@H](Cc1cnc[nH]1)C(=O)N[C@@H](CCCNC(=N)N)C(=O)N[C@@H](CO)C(=O)N[C@@H](CO)C(=O)N[C@@H](CC(N)=O)C(=O)N[C@@H](CC(N)=O)C(=O)N[C@@H](Cc1ccccc1)C(=O)NCC(=O)N[C@@H](C)C(=O)N1CCC[C@H]1C(=O)N[C@@H](CC(C)C)C(=O)N[C@@H](CO)C(=O)N[C@@H](CO)C(=O)N[C@H](C(=O)N[C@@H](CC(N)=O)C(=O)N[C@H](C(=O)NCC(=O)N[C@@H](CO)C(=O)N[C@@H](CC(N)=O)C(=O)N[C@H](C(=O)N[C@@H](Cc1ccc(O)cc1)C(N)=O)[C@@H](C)O)C(C)C)[C@@H](C)O ({C20 diacid-γGlu}-HCNTATCATQRLAEFLHRSSNNFGAPLSSTNVGSNTY-NH2; disulfide 2-7) |  |  | 2 |  |
| 100% | 200 µM (≈ 900 µg/mL) |  | 0.379 nM | 200 µM (≈ 900 µg/mL) | 200 µM (≈ 900 µg/mL) | 45 h | 200 µM (≈ 900 µg/mL) | 80 µM (≈ 360 µg/mL) | 0.111 nM | 200 µM (≈ 900 µg/mL) | 200 µM (≈ 900 µg/mL) | 2.54 nM | 0.49 nM | CC[C@H](C)[C@H](NC(=O)[C@@H]1CCCN1C(=O)CNC(=O)[C@H](Cc1ccccc1)NC(=O)[C@H](CC(N)=O)NC(=O)[C@H](CC(N)=O)NC(=O)[C@H](CO)NC(=O)[C@H](CO)NC(=O)[C@H](Cc1c[nH]cn1)NC(=O)[C@H](CCCNC(=N)N)NC(=O)[C@H](CC(C)C)NC(=O)[C@H](Cc1ccccc1)NC(=O)[C@H](CCC(=O)O)NC(=O)[C@H](C)NC(=O)[C@H](CC(C)C)NC(=O)[C@H](CCCNC(=N)N)NC(=O)[C@H](CCC(N)=O)NC(=O)[C@@H](NC(=O)[C@H](C)NC(=O)[C@@H]1CSSC[C@H](NC(=O)[C@H](CCCCN)NC(=O)CC[C@H](NC(=O)CCCCCCCCCCCCCCCCCCC(=O)O)C(=O)O)C(=O)N[C@@H](CC(N)=O)C(=O)N[C@@H]([C@@H](C)O)C(=O)N[C@@H](C)C(=O)N[C@@H]([C@@H](C)O)C(=O)N1)[C@@H](C)O)C(=O)N[C@@H](CC(C)C)C(=O)N1CCC[C@H]1C(=O)N1CCC[C@H]1C(=O)N[C@H](C(=O)N[C@@H](CC(N)=O)C(=O)N[C@H](C(=O)NCC(=O)N[C@@H](CO)C(=O)N[C@@H](Cc1cnc[nH]1)C(=O)N[C@H](C(=O)N[C@@H](Cc1ccc(O)cc1)C(N)=O)[C@@H](C)O)C(C)C)[C@@H](C)O ({C20 diacid-γGlu}-KCNTATCATQRLAEFLRHSSNNFGPILPPTNVGSHTY-NH2; disulfide 2-7) | 17% | 0% | 3 | 5 |
